# Marks after values point to notes of the source that are not given here.
# Key:
# [1] = tested on: high fat diet fed male Wistar rats; test: Anti-obesity activity in high fat diet fed rats; type: in vivo, rat; conditions: Group III, Orlistat 30 mg/kg
# Description: Objective: The objective was to investigate the effect of the composition against high fat diet fed rats.
# Animals: male Wistar rats (160 to 200 g); no. of animals: 36; housing: 3/cage, 12 hrs light/dark cycle; temperature: 25±2° c.
# Model & composition of the diet: high fat diet in rats: 25% lard, 5% soybean oil; 5% starch; 65% normal commercial available rat feed
# Groups: male Wistar rats were divided into six groups with six animals in each group.
# [2] = Lipid peroxidation inhibitory assay (TBARS, egg yolk homogenate); type: biochemical; conditions: Sample Concentration: 100-500 μg/ml
# Description: A modified thiobarbituric acid reactive species (TBARS) assay (Ohkowa et al., 1979) is used to measure lipid peroxidation formed using egg yolk homogenate as lipid rich media (Ruberto et al., 2000).
# Take 0.5 ml of egg homogenate (10% in distilled water) and 0.1 ml of test sample in the concentration range 100-500 μg/ml in a test tube and volume made up to 1 ml by adding distilled water. Finally add 0.05 ml ferrous sulphate (0.07M) to the above mixture and incubated for 30 min to induce the lipid peroxidation. Thereafter added 1.5 ml of 20% acetic acid (pH 3.5) and 1.5 ml of (0.8% in 1.1% SDS) TBA and 0.05 ml (20%) TCA then heated in boiling water bath for 60 min. After cooling 5 ml of butanol was added to all the test tubes and centrifuged at 3000 rpm for 10 min. Measured the absorbance of the organic upper layer at 532 nm. The percentage inhibition of lipid peroxidation was calculated from the formula,
# [formula] where: Ab (cont)—is the absorbance of the control Ab (test sample)—is the absorbance of the test sample/standard
# [3] = Hydrogen peroxide (H2O2) scavenging activity; type: biochemical
# Description: Hydrogen peroxide scavenging activity of the composition was estimated in this study where initially, composition solutions were prepared at different concentrations in distilled water and the resultant solutions were mixed in 0.6 ml of 40 mM H2O2 solution prepared in phosphate buffer (0.1 M pH 7.4) and incubated for 10 min. The absorbance was measured at 230 nm against a blank solution containing H2O2. Similar procedure was repeated for the composition, mangiferin, and quercetin. The amount of hydrogen peroxide radical inhibited was calculated using the following equation. The result is expressed as % H2O2 radical scavenging activity.
# [formula] [formula] where: Abs control—Absorbance of H2O2 radical Abs sample—Absorbance of sample extract/standard (the composition, mangiferin and quercetin) Result: […]
SMILES,Atherogenic Index [1],BAT (brown adipose tissue) [1],Difference in body weight gain [1],Epididymal fat pad Left [1],Epididymal fat pad Right [1],Liver organ weight [1],Lipid peroxidation % inhibition [2] [%],% H2O2 radical scavenging activity ([3]; 10 μg/ml) [%],% H2O2 radical scavenging activity ([3]; 20 μg/ml) [%],% H2O2 radical scavenging activity ([3]; 30 μg/ml) [%],% H2O2 radical scavenging activity ([3]; 40 μg/ml) [%]
CCCCCCCCCCC[C@@H](C[C@@H]1OC(=O)[C@H]1CCCCCC)OC(=O)[C@H](CC(C)C)NC=O [Orlistat],1.39 ± 0.15^***b,0.28 ± 0.01^nsb,79.82 ± 2.58 ^b,0.52 ± 0.03^nsb,0.55 ± 0.02^nsb,2.8 ± 0.08***^b,–,–,–,–,–
"O=c1c(O)c(-c2ccc(O)c(O)c2)oc2cc(O)cc(O)c12 [Quercetin(Standard), Quercetin]",–,–,–,–,–,–,53.44,5.6,14.55,18.86,33.96
